The values that follow come from US12479847B2 (DANA-FARBER CANCER INSTITUTE, INC., priority 2019, dated 2025).

Some results are limits rather than exact numbers.

For one experiment, the target named is T1, wild-type LRKK2 (Mus musculus, UniProt Q5S006).
T1 construct: endogenous in cells; host or cells: NIH-3T3
T1 sequence (Q5S006 whole entry): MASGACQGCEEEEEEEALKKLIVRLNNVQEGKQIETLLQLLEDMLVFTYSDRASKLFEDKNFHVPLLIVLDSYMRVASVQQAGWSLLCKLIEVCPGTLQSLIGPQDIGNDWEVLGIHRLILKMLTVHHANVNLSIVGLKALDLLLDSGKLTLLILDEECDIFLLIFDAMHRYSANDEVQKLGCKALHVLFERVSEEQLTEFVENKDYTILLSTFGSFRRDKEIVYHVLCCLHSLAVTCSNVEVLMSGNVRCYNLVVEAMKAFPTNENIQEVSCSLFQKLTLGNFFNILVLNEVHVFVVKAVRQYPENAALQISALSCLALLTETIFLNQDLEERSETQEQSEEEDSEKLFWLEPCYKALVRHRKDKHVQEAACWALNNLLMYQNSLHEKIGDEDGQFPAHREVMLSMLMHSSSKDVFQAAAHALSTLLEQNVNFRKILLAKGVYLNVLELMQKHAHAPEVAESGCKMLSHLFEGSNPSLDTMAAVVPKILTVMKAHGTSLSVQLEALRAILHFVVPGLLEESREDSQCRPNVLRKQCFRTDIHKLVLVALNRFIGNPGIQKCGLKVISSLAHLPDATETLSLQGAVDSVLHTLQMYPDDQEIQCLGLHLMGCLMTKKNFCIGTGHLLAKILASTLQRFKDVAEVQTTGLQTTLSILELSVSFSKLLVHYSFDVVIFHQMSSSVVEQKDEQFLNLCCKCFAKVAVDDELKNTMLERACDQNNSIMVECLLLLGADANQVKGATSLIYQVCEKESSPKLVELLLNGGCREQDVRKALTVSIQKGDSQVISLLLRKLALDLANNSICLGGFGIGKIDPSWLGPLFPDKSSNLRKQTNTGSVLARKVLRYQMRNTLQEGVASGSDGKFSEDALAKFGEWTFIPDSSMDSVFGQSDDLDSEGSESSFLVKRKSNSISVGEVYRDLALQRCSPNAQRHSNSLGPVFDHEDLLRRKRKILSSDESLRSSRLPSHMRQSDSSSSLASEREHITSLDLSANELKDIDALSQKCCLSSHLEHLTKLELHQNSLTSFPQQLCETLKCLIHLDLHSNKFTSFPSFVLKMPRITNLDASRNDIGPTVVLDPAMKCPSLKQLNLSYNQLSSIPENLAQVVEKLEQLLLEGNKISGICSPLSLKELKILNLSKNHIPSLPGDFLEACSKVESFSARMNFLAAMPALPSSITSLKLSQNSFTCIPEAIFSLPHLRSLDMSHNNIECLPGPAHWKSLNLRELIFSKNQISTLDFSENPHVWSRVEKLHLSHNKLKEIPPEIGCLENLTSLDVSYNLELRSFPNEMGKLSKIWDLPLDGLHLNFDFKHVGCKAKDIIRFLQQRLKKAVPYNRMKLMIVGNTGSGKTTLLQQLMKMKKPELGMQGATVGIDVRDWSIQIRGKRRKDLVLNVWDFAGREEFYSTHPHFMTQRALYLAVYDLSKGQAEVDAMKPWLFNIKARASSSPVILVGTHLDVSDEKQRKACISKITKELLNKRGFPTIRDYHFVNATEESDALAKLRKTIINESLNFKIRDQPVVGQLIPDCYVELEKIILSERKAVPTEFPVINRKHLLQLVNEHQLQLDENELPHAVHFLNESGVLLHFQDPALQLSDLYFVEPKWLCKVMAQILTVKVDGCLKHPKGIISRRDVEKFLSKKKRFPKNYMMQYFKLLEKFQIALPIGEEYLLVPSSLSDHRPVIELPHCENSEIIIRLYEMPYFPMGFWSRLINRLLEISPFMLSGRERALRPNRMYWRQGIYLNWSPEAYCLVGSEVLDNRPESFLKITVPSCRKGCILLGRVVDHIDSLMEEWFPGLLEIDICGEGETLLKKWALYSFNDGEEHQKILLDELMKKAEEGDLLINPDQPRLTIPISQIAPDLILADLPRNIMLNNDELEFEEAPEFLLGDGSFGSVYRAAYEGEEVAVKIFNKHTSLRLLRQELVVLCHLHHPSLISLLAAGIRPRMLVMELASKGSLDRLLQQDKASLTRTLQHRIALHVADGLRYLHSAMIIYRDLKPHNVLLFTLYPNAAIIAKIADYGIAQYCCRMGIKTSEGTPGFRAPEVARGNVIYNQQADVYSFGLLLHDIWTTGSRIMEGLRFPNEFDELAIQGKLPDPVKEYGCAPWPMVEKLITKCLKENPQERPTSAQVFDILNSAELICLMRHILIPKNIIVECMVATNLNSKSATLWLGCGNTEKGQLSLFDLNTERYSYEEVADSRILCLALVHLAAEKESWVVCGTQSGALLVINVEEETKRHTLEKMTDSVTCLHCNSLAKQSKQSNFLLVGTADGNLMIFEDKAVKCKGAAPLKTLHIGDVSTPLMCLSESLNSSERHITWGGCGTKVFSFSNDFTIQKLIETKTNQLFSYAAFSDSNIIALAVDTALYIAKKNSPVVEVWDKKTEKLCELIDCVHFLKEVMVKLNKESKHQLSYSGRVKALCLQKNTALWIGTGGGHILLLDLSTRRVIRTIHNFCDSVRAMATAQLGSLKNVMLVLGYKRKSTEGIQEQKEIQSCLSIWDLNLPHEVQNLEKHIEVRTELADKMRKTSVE
The experiment in a line: LRRK2 immunoblot, phosphorylation of Ser935, NIH-3T3 cell lysates. Particulars: FIG. 1. The experiment is classed as cell-based. As to the method:
Cell lysates were extracted from the NIH-3T3 cell pellet using lysis buffer (40 mM Tris-HCl pH 8.0, 120 mM NaCl, 0.10% Nonidet™-P40) supplemented with protease inhibitors. Proteins in whole-cell lysates were separated by SDS-PAGE and transferred to an Amersham™ nitrocellulose membrane (Amersham, UK). Nitrocellulose membranes were blocked with 5% skim milk in phosphate-buffered saline containing Tween 20 and incubated with primary antibodies overnight at 4° C. The blots were then incubated with the appropriate horseradish peroxidase (HRP)-conjugated secondary antibodies and proteins were visualized by enhanced chemiluminescence, according to the manufacturer's protocol (Amersham™ Western blotting). Secondary antibodies, anti-rabbit IgG-HRP were purchased from Cell Signaling technology. Immunoblot film were scanned on a LAS500 scanner, and images were managed with Adobe Photoshop
For the molecule `CCCNc1nc(Nc2ccc(C(=O)N3CCC(N4CCOCC4)CC3)c3c2OCCO3)nc2[nH]cc(Cl)c12` [Compound 2, (8-((5-chloro-4-(propylamino)-7H-pyrrolo[2,3-d]pyrimidin-2-yl)amino)-2,3-dihydrobenzo[b][1,4]dioxin-5-yl)(4-morpholinopiperidin-1-yl)methanone], the “inhibition of the phosphorylation of Ser935 in wild-type LRKK2” value is “inhibited the phosphorylation of Ser935 in wild-type LRKK2 with potency similar to known LRRK2 inhibitor LRRK2-IN-1”.

With `COc1cc(C(=O)N2CCC(N3CCN(C)CC3)CC2)ccc1Nc1ncc2c(n1)N(C)c1ccccc1C(=O)N2C` [LRRK2-IN-1, reference compound], the “inhibition of the phosphorylation of Ser935 in wild-type LRKK2” value is listed as “inhibition of the phosphorylation of Ser935”.

For another experiment, the target named is human LRRK2 kinase (Homo sapiens, UniProt Q5S007).
Chain of human LRRK2 kinase (Q5S007 whole entry): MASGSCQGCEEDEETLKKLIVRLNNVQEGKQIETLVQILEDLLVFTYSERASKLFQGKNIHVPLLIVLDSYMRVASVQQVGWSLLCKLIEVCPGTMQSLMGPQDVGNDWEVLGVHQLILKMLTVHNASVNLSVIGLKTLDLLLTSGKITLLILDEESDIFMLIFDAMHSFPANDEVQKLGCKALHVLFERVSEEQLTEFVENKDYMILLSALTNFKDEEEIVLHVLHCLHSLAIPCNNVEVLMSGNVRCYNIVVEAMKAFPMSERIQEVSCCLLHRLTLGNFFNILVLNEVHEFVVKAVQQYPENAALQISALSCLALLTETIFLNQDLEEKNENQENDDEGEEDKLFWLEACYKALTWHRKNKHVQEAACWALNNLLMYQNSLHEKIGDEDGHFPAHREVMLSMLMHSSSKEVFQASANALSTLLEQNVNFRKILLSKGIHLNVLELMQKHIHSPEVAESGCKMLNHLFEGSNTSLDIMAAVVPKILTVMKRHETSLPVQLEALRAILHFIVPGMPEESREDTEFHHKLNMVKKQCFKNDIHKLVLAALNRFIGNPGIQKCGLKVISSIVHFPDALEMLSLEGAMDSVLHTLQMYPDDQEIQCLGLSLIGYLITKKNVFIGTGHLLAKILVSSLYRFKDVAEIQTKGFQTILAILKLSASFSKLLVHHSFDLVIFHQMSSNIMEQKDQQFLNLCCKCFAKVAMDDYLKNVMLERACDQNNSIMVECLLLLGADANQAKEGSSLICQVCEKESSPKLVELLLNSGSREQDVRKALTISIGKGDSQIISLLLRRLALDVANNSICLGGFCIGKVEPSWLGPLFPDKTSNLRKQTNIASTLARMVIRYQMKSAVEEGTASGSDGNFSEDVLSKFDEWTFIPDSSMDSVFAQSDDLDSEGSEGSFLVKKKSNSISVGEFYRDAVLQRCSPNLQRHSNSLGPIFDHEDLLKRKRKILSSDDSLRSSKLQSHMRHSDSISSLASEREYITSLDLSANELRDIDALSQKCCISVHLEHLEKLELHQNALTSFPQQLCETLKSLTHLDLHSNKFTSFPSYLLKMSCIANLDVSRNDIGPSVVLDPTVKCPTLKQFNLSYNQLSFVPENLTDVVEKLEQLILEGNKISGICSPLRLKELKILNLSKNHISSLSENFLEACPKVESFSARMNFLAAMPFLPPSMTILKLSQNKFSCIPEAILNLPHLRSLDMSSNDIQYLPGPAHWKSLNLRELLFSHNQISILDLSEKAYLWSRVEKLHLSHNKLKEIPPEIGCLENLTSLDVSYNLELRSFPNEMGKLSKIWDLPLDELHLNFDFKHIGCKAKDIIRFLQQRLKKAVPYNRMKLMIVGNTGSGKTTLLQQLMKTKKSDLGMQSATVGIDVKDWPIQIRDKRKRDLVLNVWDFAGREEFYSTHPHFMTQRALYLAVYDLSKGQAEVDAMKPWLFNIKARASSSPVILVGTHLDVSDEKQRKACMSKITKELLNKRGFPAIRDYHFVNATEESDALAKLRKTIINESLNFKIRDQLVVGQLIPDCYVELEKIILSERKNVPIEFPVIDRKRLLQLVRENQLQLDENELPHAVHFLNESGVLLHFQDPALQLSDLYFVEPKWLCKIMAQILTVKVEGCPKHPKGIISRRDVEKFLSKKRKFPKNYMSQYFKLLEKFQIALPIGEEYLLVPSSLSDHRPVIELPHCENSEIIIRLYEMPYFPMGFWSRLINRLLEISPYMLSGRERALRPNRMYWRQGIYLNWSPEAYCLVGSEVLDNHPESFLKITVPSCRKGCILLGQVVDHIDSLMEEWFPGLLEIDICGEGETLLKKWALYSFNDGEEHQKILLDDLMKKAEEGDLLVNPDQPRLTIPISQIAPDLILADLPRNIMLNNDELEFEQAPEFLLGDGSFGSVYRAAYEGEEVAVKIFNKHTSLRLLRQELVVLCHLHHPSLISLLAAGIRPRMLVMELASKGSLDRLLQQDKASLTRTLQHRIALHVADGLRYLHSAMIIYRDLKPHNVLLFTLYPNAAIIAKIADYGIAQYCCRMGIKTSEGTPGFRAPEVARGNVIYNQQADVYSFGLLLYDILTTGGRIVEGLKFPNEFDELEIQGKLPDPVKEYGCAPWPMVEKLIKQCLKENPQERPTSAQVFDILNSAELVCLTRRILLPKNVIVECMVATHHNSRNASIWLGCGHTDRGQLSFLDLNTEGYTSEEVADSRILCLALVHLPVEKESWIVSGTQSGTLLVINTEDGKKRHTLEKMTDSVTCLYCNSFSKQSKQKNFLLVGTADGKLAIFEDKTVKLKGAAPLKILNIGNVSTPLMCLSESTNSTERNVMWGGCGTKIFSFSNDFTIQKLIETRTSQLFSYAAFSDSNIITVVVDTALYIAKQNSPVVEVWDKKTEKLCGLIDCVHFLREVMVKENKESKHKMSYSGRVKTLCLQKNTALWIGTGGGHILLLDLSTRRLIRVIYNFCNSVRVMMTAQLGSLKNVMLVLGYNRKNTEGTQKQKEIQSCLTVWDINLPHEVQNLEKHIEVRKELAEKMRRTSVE
Assay: not given
Particulars: LRRK2, ADP-Glo, ATP 10 μM, 60 minutes at 25° C.
`CCCNc1nc(Nc2ccc(C(=O)N3CCC(N4CCOCC4)CC3)c3c2OCCO3)nc2[nH]cc(Cl)c12` [Compound 2, (8-((5-chloro-4-(propylamino)-7H-pyrrolo[2,3-d]pyrimidin-2-yl)amino)-2,3-dihydrobenzo[b][1,4]dioxin-5-yl)(4-morpholinopiperidin-1-yl)methanone] had an IC50 of under 10 nM.

Consider `COc1cc(P2(=O)CCN(C3CC3)CC2)ccc1Nc1nc(NC2CC2)c2c(Cl)c[nH]c2n1` [Compound 90, 4-(4-((5-chloro-4-(cyclopropylamino)-7H-pyrrolo[2,3-d]pyrimidin-2-yl)amino)-3-methoxyphenyl)-1-cyclopropyl-1,4-azaphosphinane 4-oxide], for which the IC50 lay in the range of 10 to 100 nM.

The molecule `O=C(c1ccc(Nc2nc(NC3CC3)c3c(Cl)c[nH]c3n2)c2c1OCCO2)N1CCOCC1` [Compound 27, (8-((5-chloro-4-(cyclopropylamino)-7H-pyrrolo[2,3-d]pyrimidin-2-yl)amino)-2,3-dihydrobenzo[b][1,4]dioxin-5-yl)(morpholino)methanone] had an IC50 of under 10 nM.

The molecule `COc1cc(S(C)(=O)=O)ccc1Nc1nc(NC2CCCC2)c2c(Cl)c[nH]c2n1` [Compound 57, 5-chloro-N4-cyclopentyl-N2-(2-methoxy-4-(methylsulfonyl)phenyl)-7H-pyrrolo[2,3-d]pyrimidine-2,4-diamine] came in with an IC50 of 100 to 1000 nM.

With `COc1cc(S(=O)(=O)N2CCOCC2)ccc1Nc1nc(NCC(C)C)c2c(Cl)c[nH]c2n1` [Compound 31, 5-chloro-N4-isobutyl-N2-(2-methoxy-4-(morpholinosulfonyl)phenyl)-7H-pyrrolo[2,3-d]pyrimidine-2,4-diamine], the IC50 is 100 to 1000 nM.

In the case of `COc1cc(S(=O)(=O)N2CCC(N3CCOCC3)CC2)ccc1Nc1nc(NC2CC2)c2c(Cl)c[nH]c2n1` [Compound 25, 5-chloro-N4-cyclopropyl-N2-(2-methoxy-4-((4-morpholinopiperidin-1-yl)sulfonyl)phenyl)-7H-pyrrolo[2,3-d]pyrimidine-2,4-diamine], the IC50 was under 10 nM.

The molecule `CCCNc1nc(Nc2ccc(S(C)(=O)=O)cc2OC)nc2[nH]cc(Cl)c12` [Compound 8, 5-chloro-N2-(2-methoxy-4-(methylsulfonyl)phenyl)-N4-propyl-7H-pyrrolo[2,3-d]pyrimidine-2,4-diamine] yielded an IC50 of 10 to 100 nM.

With `CC[C@@H](C)Nc1nc(Nc2ccc(C(=O)N3CCOCC3)c3c2OCCO3)nc2[nH]cc(Cl)c12` [Compound 50, (R)-(8-((4-(sec-butylamino)-5-chloro-7H-pyrrolo[2,3-d]pyrimidin-2-yl)amino)-2,3-dihydrobenzo[b][1,4]dioxin-5-yl)(morpholino)methanone], the IC50 was under 10 nM.

In turn, `O=C(c1ccc(Nc2nc(NC3CCC3)c3c(Cl)c[nH]c3n2)c2c1CCO2)N1CCC(N2CCOCC2)CC1` [Compound 103, (7-((5-chloro-4-(cyclobutylamino)-7H-pyrrolo[2,3-d]pyrimidin-2-yl)amino)-2,3-dihydrobenzofuran-4-yl)(4-morpholinopiperidin-1-yl)methanone] had an IC50 of 10 to 100 nM.

`CCCNc1nc(Nc2ccc(P3(=O)CCN(C4CC4)CC3)cc2OC)nc2[nH]cc(Cl)c12` [Compound 99, 4-(4-((5-chloro-4-(propylamino)-7H-pyrrolo[2,3-d]pyrimidin-2-yl)amino)-3-methoxyphenyl)-1-cyclopropyl-1,4-azaphosphinane 4-oxide] showed an IC50 of 10 to 100 nM.

`COCCNc1nc(Nc2ccc(C(=O)N3CCOCC3)c3c2OCCO3)nc2[nH]cc(Cl)c12` [Compound 9, (8-((5-chloro-4-((2-methoxyethyl)amino)-7H-pyrrolo[2,3-d]pyrimidin-2-yl)amino)-2,3-dihydrobenzo[b][1,4]dioxin-5-yl)(morpholino)methanone] had an IC50 of under 10 nM.

The molecule `COc1cc(S(C)(=O)=O)ccc1Nc1nc(NCC2CC2)c2c(Cl)c[nH]c2n1` [Compound 64, 5-chloro-N4-(cyclopropylmethyl)-N2-(2-methoxy-4-(methylsulfonyl)phenyl)-7H-pyrrolo[2,3-d]pyrimidine-2,4-diamine] showed an IC50 of 10 to 100 nM.

Regarding `CNc1nc(Nc2ccc(C(=O)N3CCC(N4CCOCC4)CC3)c3c2OCC3)nc2[nH]cc(Cl)c12` [Compound 86, (7-((5-chloro-4-(methylamino)-7H-pyrrolo[2,3-d]pyrimidin-2-yl)amino)-2,3-dihydrobenzofuran-4-yl)(4-morpholinopiperidin-1-yl)methanone], the IC50 is under 10 nM.

In the case of `CC(C)Nc1nc(Nc2ccc(C(=O)N3CCC(N4CCOCC4)CC3)c3c2OCCO3)nc2[nH]cc(Cl)c12` [Compound 88], the IC50 is 10 to 100 nM.

Molecule `COc1cc(S(=O)(=O)N2CCC(N3CCOCC3)CC2)ccc1Nc1nc(NCC2CCCC2)c2c(Cl)c[nH]c2n1` [Compound 67, 5-chloro-N4-(cyclopentylmethyl)-N2-(2-methoxy-4-((4-morpholinopiperidin-1-yl)sulfonyl)phenyl)-7H-pyrrolo[2,3-d]pyrimidine-2,4-diamine] displayed an IC50 of 100 to 1000 nM.

`CNc1nc(Nc2ccc(S(=O)(=O)N3CCOCC3)cc2OC)nc2[nH]cc(Cl)c12` [Compound 11, 5-chloro-N2-(2-methoxy-4-(morpholinosulfonyl)phenyl)-N4-methyl-7H-pyrrolo[2,3-d]pyrimidine-2,4-diamine] registered an IC50 of under 10 nM.

Consider `COc1cc(P2(=O)CCN(C(C)=O)CC2)ccc1Nc1nc(NC2CCC2)c2c(Cl)c[nH]c2n1` [Compound 92], for which the IC50 was in the range of 10 to 100 nM.

Molecule `CCNc1nc(Nc2ccc(S(=O)(=O)N3CCOCC3)cc2OC)nc2[nH]cc(Cl)c12` [Compound 6, 5-chloro-N4-ethyl-N2-(2-methoxy-4-(morpholinosulfonyl)phenyl)-7H-pyrrolo[2,3-d]pyrimidine-2,4-diamine] yielded an IC50 of over 1000 nM.

As to `CC[C@@H](C)Nc1nc(Nc2ccc(S(=O)(=O)N3CCC(N4CCOCC4)CC3)cc2OC)nc2[nH]cc(Cl)c12` [Compound 48, (R)—N4-(sec-butyl)-5-chloro-N2-(2-methoxy-4-((4-morpholinopiperidin-1-yl)sulfonyl)phenyl)-7H-pyrrolo[2,3-d]pyrimidine-2,4-diamine], the IC50 was 100 to 1000 nM.

Molecule `CC[C@@H](C)Nc1nc(Nc2ccc(S(=O)(=O)N3CCOCC3)cc2OC)nc2[nH]cc(Cl)c12` [Compound 47, (R)—N4-(sec-butyl)-5-chloro-N2-(2-methoxy-4-(morpholinosulfonyl)phenyl)-7H-pyrrolo[2,3-d]pyrimidine-2,4-diamine] had an IC50 of 100 to 1000 nM.

In turn, `COc1cc(P2(=O)CCN(C(C)=O)CC2)ccc1Nc1nc(NCC(C)C)c2c(Cl)c[nH]c2n1` [Compound 97, 1-(4-(4-((5-chloro-4-(isobutylamino)-7H-pyrrolo[2,3-d]pyrimidin-2-yl)amino)-3-methoxyphenyl)-4-oxido-1,4-azaphosphinan-1-yl)ethan-1-one] showed an IC50 of 10 to 100 nM.

Regarding `COc1cc(S(C)(=O)=O)ccc1Nc1nc(N[C@H]2CCOC2)c2c(Cl)c[nH]c2n1` [Compound 94, (S)-5-chloro-N2-(2-methoxy-4-(methylsulfonyl)phenyl)-N4-(tetrahydrofuran-3-yl)-7H-pyrrolo[2,3-d]pyrimidine-2,4-diamine], the IC50 is under 10 nM.

As for `COc1cc(S(=O)(=O)N2CCOCC2)ccc1Nc1nc(NCCS(C)(=O)=O)c2c(Cl)c[nH]c2n1` [Compound 68, 5-chloro-N2-(2-methoxy-4-(morpholinosulfonyl)phenyl)-N4-(2-(methylsulfonyl)ethyl)-7H-pyrrolo[2,3-d]pyrimidine-2,4-diamine], the IC50 was in the range of 10 to 100 nM.

Consider `COc1cc(S(=O)(=O)N2CCC(N3CCOCC3)CC2)ccc1Nc1nc(N[C@H]2CCOC2)c2c(Cl)c[nH]c2n1` [Compound 61, (S)-5-chloro-N2-(2-methoxy-4-((4-morpholinopiperidin-1-yl)sulfonyl)phenyl)-N4-(tetrahydrofuran-3-yl)-7H-pyrrolo[2,3-d]pyrimidine-2,4-diamine], for which the IC50 is under 10 nM.

`CNc1nc(Nc2ccc(C(=O)N3CCOCC3)c3c2OCCO3)nc2[nH]cc(Cl)c12` [Compound 14, (8-((5-chloro-4-(methylamino)-7H-pyrrolo[2,3-d]pyrimidin-2-yl)amino)-2,3-dihydrobenzo[b][1,4]dioxin-5-yl)(morpholino)methanone] showed an IC50 of under 10 nM.

`COc1cc(S(=O)(=O)N2CCOCC2)ccc1Nc1nc(NC2CCCCC2)c2c(Cl)c[nH]c2n1` [Compound 58, 5-chloro-N4-cyclohexyl-N2-(2-methoxy-4-(morpholinosulfonyl)phenyl)-7H-pyrrolo[2,3-d]pyrimidine-2,4-diamine] registered an IC50 of 100 to 1000 nM.

Staying with this experiment, now noted: read-out: LRRK2; ADP-Glo, ATP 10 μM, 60 minutes at 25° C.
Turning to `CCC(C)Nc1nc(Nc2ccc(S(=O)(=O)N3CCOCC3)cc2OC)nc2[nH]cc(Cl)c12` (stereo in doubt) [Compound 51, (S)—N4-(sec-butyl)-5-chloro-N2-(2-methoxy-4-(morpholinosulfonyl)phenyl)-7H-pyrrolo[2,3-d]pyrimidine-2,4-diamine], the IC50 is 100 to 1000 nM.
